Results as given in patent US10851093B2, “Tyrosine kinase inhibitors” (Rigel Pharmaceuticals, Inc., priority 2018, dated 2020).

Key:
Axl = biological target: T1, Axl (Homo sapiens, UniProt P30530); test: Phospho-AKT HTRF, HUVEC, Axl ABX-L, 8 pt; assay type: cell-based; conditions: HUVEC cells, pAkt(Ser473) HTRF, Axl ABX-L stimulation
T1 construct: Seed HUVECs (10K cells/well) in EBM-2 complete media; host or cells: HUVEC
T1 sequence (P30530 26-894): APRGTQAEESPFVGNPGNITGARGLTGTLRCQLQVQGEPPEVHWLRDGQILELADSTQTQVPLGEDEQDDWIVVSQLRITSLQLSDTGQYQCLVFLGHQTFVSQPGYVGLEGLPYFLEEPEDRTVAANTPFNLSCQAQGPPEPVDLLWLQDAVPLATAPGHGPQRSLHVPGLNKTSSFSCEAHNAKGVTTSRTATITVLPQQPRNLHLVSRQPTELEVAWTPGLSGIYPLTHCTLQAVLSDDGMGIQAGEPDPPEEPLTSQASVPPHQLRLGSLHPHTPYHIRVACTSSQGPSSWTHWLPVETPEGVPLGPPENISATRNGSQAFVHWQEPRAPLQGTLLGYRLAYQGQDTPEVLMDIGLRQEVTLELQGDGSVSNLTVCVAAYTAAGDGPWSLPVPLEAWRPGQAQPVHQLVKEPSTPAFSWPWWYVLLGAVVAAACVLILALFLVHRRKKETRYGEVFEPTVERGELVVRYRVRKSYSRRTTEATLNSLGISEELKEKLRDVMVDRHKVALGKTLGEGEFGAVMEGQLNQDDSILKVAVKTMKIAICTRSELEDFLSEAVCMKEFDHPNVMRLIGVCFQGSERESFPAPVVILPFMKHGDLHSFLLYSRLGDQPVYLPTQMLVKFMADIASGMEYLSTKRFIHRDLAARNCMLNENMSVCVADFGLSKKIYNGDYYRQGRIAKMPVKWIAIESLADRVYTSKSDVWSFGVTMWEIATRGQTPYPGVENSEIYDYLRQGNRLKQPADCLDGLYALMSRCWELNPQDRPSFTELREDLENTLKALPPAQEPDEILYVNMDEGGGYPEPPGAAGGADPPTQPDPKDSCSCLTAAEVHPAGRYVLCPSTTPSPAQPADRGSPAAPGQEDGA
Experimental: [The source words this procedure for another target and reports this target under the same test.] (§1) Example 13: PAKT HTRF-HUVEC Assay
(§2) Seed HUVECs (10K cells/well) in EBM-2 complete media (EBM-2 basal medium plus EGM-2 BulletKit supplements) overnight at 37° C., 5% CO2 in Costar 96-well white clear-bottom plates. Remove culture media and starve cells for 3-4 hours in 50 μL/well EBM-2 basal medium. Perform serial dilution of compounds in DMSO from 2.5 mM in 4-fold dilutions, and then dilute 1:125 in EBM-2 basal media. Mix 50 μL/well 2× compounds with 50 μL/well HUVECs in duplicate in Costar 96-well white clear-bottom plates. Incubate plates for 1 hour at 37° C., 5% CO2. Cross-link anti-human MerTK antibody to Biotin-SP-conjugated anti-mouse IgG antibody (1:1) to give final concentrations of 5 μg/mL of anti-human MerTK-XL. Stimulate HUVECs with 25 μL/well 5× anti-human MerTK-XL to give final concentrations of 1 ug/mL for 10 minutes at 37° C., 5% CO2. Completely remove media and lyse HUVECs with 40 uL:WELL per well of Cisbio HTRF 1× lysis buffer. Performed pAkt(Ser473) HTRF assay in ProxiPlate-384 Plus, white 384-shallow well microplate according to the vendor protocol and read plates with a SpectralMax Paradigm plate reader. Enter the HTRF values into Athena (Rigel) for curve fitting, EC50 calculation, and database storage.

MerTK = biological target: T2, MerTK (Homo sapiens, UniProt Q12866); test: Phospho-AKT HTRF, HUVEC, Mer-XL, 8 pt (pAKT HTRF-HUVEC assay, anti-human MerTK-XL stimulation); assay type: cell-based; conditions: HUVEC cells, pAkt(Ser473) HTRF, anti-human MerTK-XL stimulation 1 ug/mL 10 minutes
T2 construct: Seed HUVECs (10K cells/well) in EBM-2 complete media; host or cells: HUVEC
T2 sequence (Q12866 21-999): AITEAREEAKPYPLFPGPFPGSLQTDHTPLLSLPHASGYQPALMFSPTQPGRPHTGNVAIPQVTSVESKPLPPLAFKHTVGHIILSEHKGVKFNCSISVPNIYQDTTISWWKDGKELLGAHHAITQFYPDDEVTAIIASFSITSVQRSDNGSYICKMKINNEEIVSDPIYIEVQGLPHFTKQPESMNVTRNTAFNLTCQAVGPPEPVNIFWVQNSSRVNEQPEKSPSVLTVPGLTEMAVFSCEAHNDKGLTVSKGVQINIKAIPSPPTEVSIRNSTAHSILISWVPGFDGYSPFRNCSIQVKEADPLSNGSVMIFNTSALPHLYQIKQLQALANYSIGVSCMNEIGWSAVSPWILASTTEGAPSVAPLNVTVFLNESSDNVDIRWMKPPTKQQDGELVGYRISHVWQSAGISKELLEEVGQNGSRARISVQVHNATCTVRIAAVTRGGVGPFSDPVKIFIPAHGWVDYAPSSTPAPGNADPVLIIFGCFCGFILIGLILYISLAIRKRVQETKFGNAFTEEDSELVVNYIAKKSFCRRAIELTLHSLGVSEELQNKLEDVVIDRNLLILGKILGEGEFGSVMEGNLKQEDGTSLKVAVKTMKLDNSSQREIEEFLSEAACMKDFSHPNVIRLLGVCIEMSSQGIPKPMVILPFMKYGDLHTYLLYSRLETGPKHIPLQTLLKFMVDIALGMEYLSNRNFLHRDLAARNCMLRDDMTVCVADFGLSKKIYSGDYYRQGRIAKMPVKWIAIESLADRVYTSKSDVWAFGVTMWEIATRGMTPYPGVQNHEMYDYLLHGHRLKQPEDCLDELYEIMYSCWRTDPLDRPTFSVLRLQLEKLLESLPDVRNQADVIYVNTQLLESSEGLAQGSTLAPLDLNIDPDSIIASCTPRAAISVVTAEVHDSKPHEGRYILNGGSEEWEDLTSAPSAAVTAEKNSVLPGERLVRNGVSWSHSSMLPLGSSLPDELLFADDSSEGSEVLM
Experimental: as §1, §2

| Structure (SMILES) | EC50 (Axl) | EC50 (MerTK) |
| --- | --- | --- |
| COc1cc2c(Oc3ccc(NC(=O)c4cc(N5CCC(C)(C)CC5)ccn4)nc3)ccnc2cc1OCCCN1CCOCC1 [Compound 22, 4-(4,4-dimethylpiperidin-1-yl)-N-(5-((6-methoxy-7-(3-morpholinopropoxy)quinolin-4-yl)oxy)pyridin-2-yl)picolinamide] | 187 nM | 96 nM |
| COc1cc2c(Oc3ccc(NC(=O)c4cc(N5CCC(c6ccccc6)CC5)ccn4)nc3)ccnc2cc1OCCCN1CCOCC1 [Compound 17, N-(5-((6-methoxy-7-(3-morpholinopropoxy)quinolin-4-yl)oxy)pyridin-2-yl)-4-(4-phenylpiperidin-1-yl)picolinamide] | 1370 nM | 1640 nM |
| COc1cc2c(Oc3ccc(NC(=O)c4ncc(Br)s4)nc3)ccnc2cc1OCCCN1CCOCC1 [Compound 44, 5-bromo-N-(5-((6-methoxy-7-(3-morpholinopropoxy)quinolin-4-yl)oxy)pyridin-2-yl)thiazole-2-carboxamide] | 102 nM | 79.9 nM |
| COc1cc2c(Oc3ccc(NC(=O)c4cc(N5CCN(C)CC5)ccn4)nc3)ccnc2cc1OCCCN1CCOCC1 [Compound 1, N-(5-((6-Methoxy-7-(3-morpholinopropoxy)quinolin-4-yl)oxy)pyridin-2-yl)-4-(4-methylpiperazin-1-yl)picolinamide] | 403 nM | 421 nM |
| COc1cc2c(Oc3ccc(NC(=O)c4cc(-c5ccccc5)ccn4)nc3)ccnc2cc1OCCCN1CCOCC1 [Compound 3, N-(5-((6-Methoxy-7-(3-morpholinopropoxy)quinolin-4-yl)oxy)pyridin-2-yl)-4-phenylpicolinamide] | 162 nM | 98.7 nM |
| COc1cc2c(Oc3ccc(NC(=O)c4cccc(-c5ccccc5)n4)nc3)ccnc2cc1OCCCN1CCOCC1 [Compound 10, N-(5-((6-Methoxy-7-(3-morpholinopropoxy)quinolin-4-yl)oxy)pyridin-2-yl)-6-phenylpicolinamide] | 12.9 nM | 4.9 nM |
| COc1cc2c(Oc3ccc(NC(=O)c4cccc(N5CCC(F)(F)CC5)n4)nc3)ccnc2cc1OCCCN1CCOCC1 [Compound 28, 6-(4,4-difluoropiperidin-1-yl)-N-(5-((6-methoxy-7-(3-morpholinopropoxy)quinolin-4-yl)oxy)pyridin-2-yl)picolinamide] | 38.7 nM | 6.1 nM |
| COc1ccnc(C(=O)Nc2ccc(Oc3ccnc4cc(OCCCN5CCOCC5)c(OC)cc34)cn2)c1 [Compound 33, 4-Methoxy-N-(5-((6-methoxy-7-(3-morpholinopropoxy)quinolin-4-yl)oxy)pyridin-2-yl)picolinamide] | 188 nM | 161 nM |
| COc1cc2c(Oc3ccc(NC(=O)c4csc(-c5ccccc5)n4)nc3)ccnc2cc1OCCCN1CCOCC1 [Compound 42, N-(5-((6-methoxy-7-(3-morpholinopropoxy)quinolin-4-yl)oxy)pyridin-2-yl)-2-phenylthiazole-4-carboxamide] | 50 nM | 47.2 nM |
| COc1cc2c(Oc3ccc(NC(=O)c4ncc(-c5ccccc5)s4)nc3)ccnc2cc1OCCCN1CCOCC1 [Compound 48, N-(5-((6-methoxy-7-(3-morpholinopropoxy)quinolin-4-yl)oxy)pyridin-2-yl)-5-phenylthiazole-2-carboxamide] | 344 nM | 238 nM |
| COc1cc2c(Oc3ccc(NC(=O)c4nc(-c5ccccc5)c5c(n4)C4CCN5CC4)nc3)ccnc2cc1OCc1ccccc1 [Compound 37, N-(5-((7-(benzyloxy)-6-methoxyquinolin-4-yl)oxy)pyridin-2-yl)-4-phenyl-7,8-dihydro-6H-5,8-ethanopyrido[3,2-d]pyrimidine-2-carboxamide] | 38.4 nM | 63.6 nM |
| COc1cc2c(Oc3ccc(NC(=O)c4nc5ccccc5c(=O)[nH]4)nc3)ccnc2cc1OCCCN1CCOCC1 [Compound 12, N-(5-((6-Methoxy-7-(3-morpholinopropoxy)quinolin-4-yl)oxy)pyridin-2-yl)-4-oxo-3,4-dihydroquinazoline-2-carboxamide] | 99.4 nM | 72.1 nM |
| COc1cc2c(Oc3ccc(NC(=O)c4csc(N5CCC(O)CC5)n4)nc3)ccnc2cc1OCCCN1CCOCC1 [Compound 45, 2-(4-hydroxypiperidin-1-yl)-N-(5-((6-methoxy-7-(3-morpholinopropoxy)quinolin-4-yl)oxy)pyridin-2-yl)thiazole-4-carboxamide, hydrochloric acid] | 649 nM | 459 nM |
